5 molecules from US20250332268A1, “CONJUGATE AND COMPOSITION AS WELL AS PREPARATION METHOD THEREFOR AND USE THEREOF” (priority 2022, published 2025) can be followed below.

Read-outs that look alike come from different tables or passages of the source. Non-standard residues stand in square brackets, D forms with d. Residues, ends and D or L forms follow the SMILES beside them. *: point of attachment. {Cy5} = Cy5 fluorescent dye; Dolaproine = CO[C@@H]([C@@H]1CCCN1)[C@@H](C)C(=O)O; Dil = CC[C@H](C)[C@H](NC)[C@@H](CC(=O)O)OC; X1 = C[C@@H](N*)[C@@H](O)c1ccccc1; NMeV = CN[C@H](C(=O)O)C(C)C

In data set [1] the test system is U118MG subcutaneous tumor. In words: In vivo activity of long-interval administration against U118MG subcutaneous tumor model mice (Experimental Example 7). Further details: species or system NOD-SCID mice. As to conditions: MMAE only, 0.1 mg/kg and 0.3 mg/kg subcutaneous on D8, D11, D15, D29, D32, D36. The method, then: According to the method of experimental example 2, 42 mice inoculated with U118MG subcutaneous tumor were obtained, and the mice were kept after injection.
MMAE was dissolved into solutions with a concentration of 0.03 mg/mL and 0.01 mg/mL with 10% DMSO+90% serum-free DMEM medium (volume ratio); conjugate 21 was dissolved into a solution with a concentration of 0.5 mg/mL and 0.165 mg/mL (calculated according to aptamer); and comparative conjugate 25 was dissolved into solutions with a concentration of 0.5 mg/mL and 0.165 mg/mL (calculated according to aptamer). […] The mice were weighed before administration, and the administration volume was calculated by weight.
For blank control group, each mouse was administered with DMEM medium with a single administration volume of 10 μL/g mouse body weight; For test group 7a, each mouse was administered with MMAE with a concentration of 0.01 mg/ml with a single administration volume of 10 μL/g mouse body weight. It was calculated that a single administration dosage was 0.1 mg/kg.
For test group 7b, each mouse was administered with conjugate 21 with a concentration of 0.165 mg/ml with a single administration volume of 10 μL/g mouse body weight. It was calculated that a single administration dosage was 1.65 mg/kg (the corresponding MMAE dosage was 0.1 mg/kg). […]

Data set [2] deals with U118MG glioma cells subcutaneous tumor. In words: In vivo anti-tumor activity, tumor volume (Experimental Example 3). More on the design: species or system NOD-SCID mice. The method, then:
In this experimental example, the in vivo anti-tumor activity of the resulting conjugate 20 in mice was investigated.
The mice in this experiment were purchased from SPF Co., Ltd, the germline was NOD-SCID, the grade was SPF, male, 6-8 weeks old; U118MG glioma cells were purchased from Jennio.
The above culture medium containing U118MG cells was inoculated on subcutaneous site of the right forelimb of mice, and the injection volume was 100 μL. Each mouse was inoculated with 1×10^7 U118MG glioma cells.
The above resulting conjugate AP2 was formulated into 1.94 mg/mL of solution with PBS. Conjugate 20 was formulated into 0.625 mg/mL, 1.25 mg/mL and 2.06 mg/mL of solution with PBS, respectively (all calculated based on the amount of oligonucleotide). […]
For test group 3d, the above conjugate 20 solution with a concentration of 0.625 mg/mL was administered by tail intravenous injection with a single administration volume of 10 μL/g, a single administration dosage of […] (calculated based on the mass of oligonucleotide), wherein the dosage of MMAE contained was equivalent to 0.3 mg/kg. […]
Long diameter and short diameter of the tumors were measured by in vitro measurement method. The tumor volume was calculated according to the formula ½(long diameter×short diameter^2). […]

Data set [3] concerns U118MG orthotopic tumor (brain glioma). As to conditions: mouse, in vivo, iv, 3 mg/kg.
Protocol: (§1) U118MG human glioma cells (purchased from Guangzhou Jennio Biotech Co., Ltd) were cultured in DMEM complete medium (MACGENE company, Cat No. CM15019) supplemented with 10% fetal bovine serum (FBS, RMBIO company) at 37° C. in an incubator containing 5% CO2/95% air.
(§2) The cells were digested with 0.25% pancreatic enzyme and collected. The supernatant was aspirated, and the cells were resuspended in DMEM medium supplemented with 10% FBS to formulate into cell culture medium with a concentration of 4×10^7 cells/mL.
(§3) Experimental animals were 6 NOD-SCID mice, male, 12 weeks old (purchased from SPF (Beijing) Biotechnology Co., LTD.). The above cell culture medium was inoculated into NOD-SCID mice. […]
(§4) The administration dosage of all animals was calculated based on their body weights, the administration volume was all 10 μL/g, the administration dosage was 3 mg/kg per animal (calculated based on the amount of aptamer), 2 mice were administrated in each group and designated as test group 4a and control group 4b, respectively. […]
(§5) 24 h after administration, one mouse in each group was respectively killed and brain tissue was taken, and the remaining mice were killed at 48 h after administration and brain tissues were taken. The brain tissues of mice were taken for fluorescence imaging in IVIS Lumina Series III.
For data set [4] the test system is unchanged. In words: In vivo distribution in U118MG cell orthotopic tumor model mice, brain fluorescence imaging (Experimental Example 4). As to conditions: 24 h and 48 h after administration; 3 mg/kg tail intravenous injection.
Protocol: as §1, §2, §3, §4, §5
For data set [5], the system named is A549 subcutaneous tumor (human lung adenocarcinoma cells). In words: In vivo activity against A549 subcutaneous tumor model mice (Experimental Example 9). As to conditions: administered D8, D12, D15, D19 (MMAE equivalent 0.3 mg/kg) and D46, D50, D54 (0.6 mg/kg); versus 9b (MMAE) and 9e (comparative conjugate 24). The method, then: According to the method of experimental example 2, 30 mice inoculated with A549 subcutaneous tumors were obtained, and the mice were kept after injection.
Conjugate 20 and conjugate 21 were dissolved into conjugate solutions with a concentration of 1 mg/mL (calculated according to aptamer) with serum-free DMEM medium. Comparative conjugate 24 were dissolved into a conjugate solution with a concentration of 0.8 mg/mL (calculated according to aptamer). MMAE was dissolved into a solution with a concentration of 0.06 mg/mL with 10% DMSO+90% serum-free DMEM medium (volume ratio).
7 days after the inoculation of A549 human lung cancer cells, all mice were grouped, with 6 mice in each group, and each mouse was administrated. The day of administration was designated as D8. The mice were weighed before administration, and the administration volume was calculated by the mouse body weight. […]
For blank control group 9a, each mouse was administered with DMEM with a single administration volume of 5 μL/g mouse body weight; For control group 9b, each mouse was administered with MMAE with a single administration volume of 5 μL/g mouse body weight. It was calculated that a single administration dosage was 0.3 mg/kg; […]
Tumor volumes were measured on D1, D9, D16, D19, D22, D26, D30, D36, D40, D43, D47, D50, D54, and D57. The blank control group was measured on D50, and then the experiment was terminated. […]

For the molecule `CC[C@H](C)[C@@H]([C@@H](CC(=O)N1CCC[C@H]1[C@H](OC)[C@@H](C)C(=O)N[C@H](C)[C@@H](O)c1ccccc1)OC)N(C)C(=O)[C@@H](NC(=O)[C@@H](NC)C(C)C)C(C)C` [MMAE, Monomethyl auristatin E, reference compound] (H-[NMeV]V[Dil][Dolaproine]-X1), the “increase rates of tumor volume” value in data set [1] was “slightly decreased”. Besides, in data set [2] (control group 3c, 0.3 mg/kg tail intravenous injection on D8, D12, D16, D20), the “increase rate of tumor volume” value is reported as “increase rate of tumor volume was decreased”.

With “CY5-CmUmGmGmAmGmUmUmCmAmGmAmCmGmUmGmUmUmGmCmUmCmUmUmCmCmGmAmUmCmUmCm (DNA CUGGAGUUCAGACGUGUUGCUCUUCCGAUCUC; all 2'-O-methyl, 5' {Cy5}, backbone not given here) [AP2]”, in data set [3], the “fluorescence signal in brain tissue” value is “strong fluorescence signals at the inoculation tumor location”. Besides, the “tumor volume over time” value in data set [2] (control group 3b, 15.5 mg/kg tail intravenous injection on D8, D12, D16, D20) is “increased rapidly”.

Consider “CY5-UfCfUfAUfGGCfUfGCfCfGAUfCfUfGGUfCfUfCfCfAUfGUfACfGUf (UCUAUGGCUGCCGAUCUGGUCUCCAUGUACGU; 2'-fluoro at CU, RNA at AG, 5' {Cy5}, backbone not given here) [Comparative AP19]”, for which, in data set [4], the “fluorescence signal in brain tissue” value was “no fluorescence signal at all in the brain”.

As for “MMAE-CmUmGmGmAmGmUmUmCmAmGmAmCmGmUmGmUmUmGmCmUmCmUmUmCmCmGmAmUmCmUmCm (DNA CUGGAGUUCAGACGUGUUGCUCUUCCGAUCUC; all 2'-O-methyl, backbone not given here; MMAE drug conjugated at 5' end via linker, further chemistry not fully specified) [Conjugate 20, dye group of AP2 replaced with MMAE; linking group 2-(phosphate ester group-(CH2)6—S—)-MC-Val-Cit-PAB]”, the “tumor volumes at each time period” value in data set [5] was “smaller than those of the control groups 9b and 9e”.

For “MMAE-CmUmGmGmAmGmUmUmCmAmGmAmCmGmUmUmGmUmGmCmUmCmUmUm (CUGGAGUUCAGACGUUGUGCUCUU; all 2'-O-methyl, backbone not given here; MMAE drug conjugated at 5' end via linker, further chemistry not fully specified) [Conjugate 21]”, the “tumor volumes at each time period” value in data set [5] was “smaller than those of the control groups 9b and 9e”.
